# Laboratory results reported in the supplement of paper PMC10307832.
# Columns and labels:
# Assay in all cases: relative viability (nuclei count vs DMSO), 5 days (fraction); higher = more cells survive
# 201T = tested on: 201T
# Outline: (§1)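 Cells from lung cancer lines were seeded into 1536-well plates and, one day later, dosed by pin tool. Treatments were either a single drug or a fixed dose of an anchor drug with five library-drug doses (not always all listed) in √10 steps. After 5 days, nuclei were stained in a one-step fixation (final 0.05% Triton X-100, 1% formaldehyde, 1 ug/ml Hoechst) and counted on 4× images, and relative viability is the treated-to-vehicle nuclei ratio, as the median of duplicate plates.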
# NCI-H727 = tested on: NCI-H727
# Outline: as §1
# NCI-H1437 = tested on: NCI-H1437
# Outline: as §1
# LCLC-97TM1 = tested on: LCLC-97TM1
# Outline: as §1
# NCI-H647 = tested on: NCI-H647
# Outline: as §1
# NCI-H1944 = tested on: NCI-H1944
# Outline: as §1
# SK-LU-1 = tested on: SK-LU-1
# Outline: as §1
# NCI-H1395 = tested on: NCI-H1395
# Outline: as §1
# NCI-H1793 = tested on: NCI-H1793
# Outline: as §1
# LXF-289 = tested on: LXF-289
# Outline: as §1
# HCC-827 = tested on: HCC-827
# Outline: as §1
# BEN = tested on: BEN
# Outline: as §1
# NCI-H1792 = tested on: NCI-H1792
# Outline: as §1
# RERF-LC-KJ = tested on: RERF-LC-KJ
# Outline: as §1
# NCI-H2228 = tested on: NCI-H2228
# Outline: as §1
# NCI-H2405 = tested on: NCI-H2405
# Outline: as §1
# NCI-H322M = tested on: NCI-H322M
# Outline: as §1
# NCI-H3122 = tested on: NCI-H3122
# Outline: as §1
# CAL-12T = tested on: CAL-12T
# Outline: as §1
# LCLC-103H = tested on: LCLC-103H
# Outline: as §1
# NCI-H1650 = tested on: NCI-H1650
# Outline: as §1
# NCI-H2087 = tested on: NCI-H2087
# Outline: as §1
compound,measurement,setting,value
COc1cc2nccc(Oc3ccc(NC(=O)Nc4cc(C)on4)c(Cl)c3)c2cc1OC [Tivozanib] + CCNC(=O)c1noc(-c2cc(C(C)C)c(O)cc2O)c1-c1ccc(CN2CCOCC2)cc1 [Luminespib] (partner 0.01 µM),relative viability,201T; first compound 0.005 µM,1.06
same,relative viability,201T; first compound 0.01581 µM,1.06
same,relative viability,201T; first compound 0.05 µM,1.03
same,relative viability,201T; first compound 0.1581 µM,1.06
same,relative viability,201T; first compound 0.5 µM,1.06
same,relative viability,NCI-H727; first compound 0.005 µM,0.349
same,relative viability,NCI-H727; first compound 0.01581 µM,0.59
same,relative viability,NCI-H727; first compound 0.05 µM,0.468
same,relative viability,NCI-H727; first compound 0.1581 µM,0.528
same,relative viability,NCI-H727; first compound 0.5 µM,0.609
same,relative viability,NCI-H1437; first compound 0.005 µM,1.14
same,relative viability,NCI-H1437; first compound 0.01581 µM,1.11
same,relative viability,NCI-H1437; first compound 0.05 µM,1.13
same,relative viability,NCI-H1437; first compound 0.1581 µM,1.13
same,relative viability,NCI-H1437; first compound 0.5 µM,1.11
same,relative viability,LCLC-97TM1; first compound 0.005 µM,0.845
same,relative viability,LCLC-97TM1; first compound 0.01581 µM,0.849
same,relative viability,LCLC-97TM1; first compound 0.05 µM,0.716
same,relative viability,LCLC-97TM1; first compound 0.1581 µM,0.898
same,relative viability,LCLC-97TM1; first compound 0.5 µM,0.738
same,relative viability,NCI-H647; first compound 0.005 µM,0.156
same,relative viability,NCI-H647; first compound 0.01581 µM,0.527
same,relative viability,NCI-H647; first compound 0.05 µM,0.401
same,relative viability,NCI-H647; first compound 0.1581 µM,0.257
same,relative viability,NCI-H647; first compound 0.5 µM,0.148
same,relative viability,NCI-H1944; first compound 0.005 µM,0.691
same,relative viability,NCI-H1944; first compound 0.01581 µM,0.83
same,relative viability,NCI-H1944; first compound 0.05 µM,0.732
same,relative viability,NCI-H1944; first compound 0.1581 µM,0.625
same,relative viability,NCI-H1944; first compound 0.5 µM,0.818
same,relative viability,SK-LU-1; first compound 0.005 µM,0.197
same,relative viability,SK-LU-1; first compound 0.01581 µM,0.211
same,relative viability,SK-LU-1; first compound 0.05 µM,0.201
same,relative viability,SK-LU-1; first compound 0.1581 µM,0.184
same,relative viability,SK-LU-1; first compound 0.5 µM,0.207
same,relative viability,NCI-H1395; first compound 0.005 µM,0.654
same,relative viability,NCI-H1395; first compound 0.01581 µM,0.755
same,relative viability,NCI-H1395; first compound 0.05 µM,0.852
same,relative viability,NCI-H1395; first compound 0.1581 µM,0.706
same,relative viability,NCI-H1395; first compound 0.5 µM,0.688
same,relative viability,NCI-H1793; first compound 0.005 µM,0.154
same,relative viability,NCI-H1793; first compound 0.01581 µM,0.422
same,relative viability,NCI-H1793; first compound 0.05 µM,0.2
same,relative viability,NCI-H1793; first compound 0.1581 µM,0.141
same,relative viability,NCI-H1793; first compound 0.5 µM,0.237
same,relative viability,LXF-289; first compound 0.005 µM,0.582
same,relative viability,LXF-289; first compound 0.01581 µM,0.611
same,relative viability,LXF-289; first compound 0.05 µM,0.641
same,relative viability,LXF-289; first compound 0.1581 µM,0.689
same,relative viability,LXF-289; first compound 0.5 µM,0.773
same,relative viability,HCC-827; first compound 0.005 µM,0.588
same,relative viability,HCC-827; first compound 0.01581 µM,0.63
same,relative viability,HCC-827; first compound 0.05 µM,0.413
same,relative viability,HCC-827; first compound 0.1581 µM,0.467
same,relative viability,HCC-827; first compound 0.5 µM,0.6
same,relative viability,BEN; first compound 0.005 µM,0.337
same,relative viability,BEN; first compound 0.01581 µM,0.305
same,relative viability,BEN; first compound 0.05 µM,0.508
same,relative viability,BEN; first compound 0.1581 µM,0.148
same,relative viability,BEN; first compound 0.5 µM,0.299
same,relative viability,NCI-H1792; first compound 0.005 µM,0.457
same,relative viability,NCI-H1792; first compound 0.01581 µM,0.344
same,relative viability,NCI-H1792; first compound 0.05 µM,0.598
same,relative viability,NCI-H1792; first compound 0.1581 µM,0.415
same,relative viability,NCI-H1792; first compound 0.5 µM,0.551
same,relative viability,RERF-LC-KJ; first compound 0.005 µM,1.16
same,relative viability,RERF-LC-KJ; first compound 0.01581 µM,1.29
same,relative viability,RERF-LC-KJ; first compound 0.05 µM,1.25
same,relative viability,RERF-LC-KJ; first compound 0.1581 µM,1.25
same,relative viability,RERF-LC-KJ; first compound 0.5 µM,1.14
same,relative viability,NCI-H2228; first compound 0.005 µM,0.0873
same,relative viability,NCI-H2228; first compound 0.01581 µM,0.219
same,relative viability,NCI-H2228; first compound 0.05 µM,0.112
same,relative viability,NCI-H2228; first compound 0.1581 µM,0.185
same,relative viability,NCI-H2228; first compound 0.5 µM,0.109
same,relative viability,NCI-H2405; first compound 0.005 µM,0.644
same,relative viability,NCI-H2405; first compound 0.01581 µM,0.953
same,relative viability,NCI-H2405; first compound 0.05 µM,0.723
same,relative viability,NCI-H2405; first compound 0.1581 µM,0.684
same,relative viability,NCI-H2405; first compound 0.5 µM,0.54
same,relative viability,NCI-H322M; first compound 0.005 µM,0.797
same,relative viability,NCI-H322M; first compound 0.01581 µM,0.882
same,relative viability,NCI-H322M; first compound 0.05 µM,0.958
same,relative viability,NCI-H322M; first compound 0.1581 µM,0.694
same,relative viability,NCI-H322M; first compound 0.5 µM,0.965
same,relative viability,NCI-H3122; first compound 0.005 µM,0.0849
same,relative viability,NCI-H3122; first compound 0.01581 µM,0.104
same,relative viability,NCI-H3122; first compound 0.05 µM,0.0902
same,relative viability,NCI-H3122; first compound 0.1581 µM,0.0689
same,relative viability,NCI-H3122; first compound 0.5 µM,0.0976
same,relative viability,CAL-12T; first compound 0.005 µM,0.253
same,relative viability,CAL-12T; first compound 0.01581 µM,0.36
same,relative viability,CAL-12T; first compound 0.05 µM,0.573
same,relative viability,CAL-12T; first compound 0.1581 µM,0.276
same,relative viability,CAL-12T; first compound 0.5 µM,0.594
same,relative viability,LCLC-103H; first compound 0.005 µM,0.847
same,relative viability,LCLC-103H; first compound 0.01581 µM,0.85
same,relative viability,LCLC-103H; first compound 0.05 µM,0.91
same,relative viability,LCLC-103H; first compound 0.1581 µM,0.964
same,relative viability,LCLC-103H; first compound 0.5 µM,0.921
same,relative viability,NCI-H1650; first compound 0.005 µM,0.172
same,relative viability,NCI-H1650; first compound 0.01581 µM,0.209
same,relative viability,NCI-H1650; first compound 0.05 µM,0.213
same,relative viability,NCI-H1650; first compound 0.1581 µM,0.178
same,relative viability,NCI-H1650; first compound 0.5 µM,0.203
same,relative viability,NCI-H2087; first compound 0.005 µM,0.135
same,relative viability,NCI-H2087; first compound 0.01581 µM,0.209
same,relative viability,NCI-H2087; first compound 0.05 µM,0.189
same,relative viability,NCI-H2087; first compound 0.1581 µM,0.148
same,relative viability,NCI-H2087; first compound 0.5 µM,0.147
